This note sets out measurements from patent US12297179B2, “Crystalline and salt forms of an organic compound and pharmaceutical compositions thereof” (Servier Pharmaceuticals LLC, priority 2018, dated 2025).

Structures are written as SMILES. Structures can show the parent of a compound that is named as a salt. Marks after values point to notes of the source that are not given here. A value given as a limit tells only on which side of the number the result lay.

Series [1] in a line: Thermodynamic stability: slurry competition between Tris salt Forms A and C. The class given is physicochemical. As to conditions: DMSO/EtOH (1:8, v/v) and EtOH, 5° C./RT/50° C./75° C., 7 days. As for the experimental part:
The thermodynamic stability relationship between Tris salt Forms A and C was investigated via slurry competition experiments in 2 process related solvent systems, DMSO/EtOH (1:8, v/v) and EtOH at 4 temperature conditions (5° C./RT/50° C./75° C.). Two stages of slurry competition experiments were conducted, of which the first stage included temperature as a variable and the second stage used newly opened reagents to minimize the effect of absorbed moisture. Typical experimental procedures are described below.
About 5-10 mg of crystalline Tris salt Form C was first dissolved in ˜1.0 mL of corresponding solvent to form nearly saturated solution under corresponding temperature (equilibrating method: stirring magnetically, ˜1000 rpm, ˜2 hrs). Then ˜15 mg of each form (crystalline Tris salt Forms A and C) was physically mixed, followed by addition of the nearly saturated solution to form a suspension. The suspensions were then stirred (˜1000 rpm) under corresponding temperature for 7 days (a small amount of solids were sampled at 2 day point in the second stage experiments). The obtained solids were isolated via centrifugation (10000 rpm, 2 mins) and tested by XRPD to confirm the form.

Series [2] is described as follows: Hygroscopicity by dynamic vapor sorption (DVS). It counts as physicochemical. Here is the method:
DVS was measured via a SMS (Surface Measurement Systems) DVS Intrinsic. The relative humidity at 25° C. was calibrated against deliquescence point of LiCl, Mg(NO3)2 and KCl.

A short description of series [3]: Kinetic solubility in bio-relevant media (SGF/FaSSGF, FaSSIF, FeSSIF) and H2O at 37° C., with pH of supernatant. The class given is physicochemical. Particulars: for solubility at 15 min / solubility at 30 min / solubility at 1 h / solubility at 2 h / solubility at 24 h: 37 °C, thermodynamic from solid; for Solubility: 37° C. Here is the method:
Weigh 100 mg of sodium chloride into a 50-mL volumetric flask. Add appropriate volume of purified water and sonicate until all solids are completely dissolved. Add sufficient purified water closely to the target volume and adjust to pH 1.6. Weigh 3 mg of FaSSIF/FeSSIF/FaSSGF powder into the volumetric flask and sonicate until the powder is completely dissolved. Dilute to target volume with purified water and mix well.
Weigh 0.170 g of monobasic sodium phosphate, 0.021 g of sodium hydroxide and 0.31 g of sodium chloride into a 50-mL volumetric flask. Add appropriate volume of purified water and sonicate until all solids are completely dissolved. Add sufficient purified water closely to the target volume and adjust to pH 6.5. Weigh 110 mg of FaSSIF/FeSSIF/FaSSGF powder into the volumetric flask and sonicate until the powder is completely dissolved. Dilute to target volume with purified water and mix well.
Weigh 0.41 mL of glacial acetic acid, 0.202 g of sodium hydroxide and 0.594 g of sodium chloride into a 50-mL volumetric flask. Add appropriate volume of purified water and sonicate until all solids are completely dissolved. Add sufficient purified water closely to the target volume and adjust to pH 5.0. Weigh 560 mg of FaSSIF/FeSSIF/FaSSGF powder into the volumetric flask and sonicate until the powder is completely dissolved. Dilute to target volume with purified water and mix well.
An Agilent 1260 HPLC with DAD detector was utilized and detailed chromatographic conditions for solubility analysis are listed in Table 5.
Kinetic solubility of Tris salt Form A and free acid Form D were measured in three bio-relevant media (SGF, FaSSIF and FeSSIF) at 37° C. In details, ˜30 mg solids were suspended into 4.0 mL of each medium initially and equilibrated via shaking (500 rpm) at 37° C. Approximately 0.8 mL suspension was extracted at each time point of 15/30/60/120 mins and 24 hrs. The supernatant and precipitate were separated by centrifugation (10000 rpm, ˜3 mins) followed by concentration (HPLC) and pH measurement for supernatant and the corresponding solid forms were characterized by XRPD.
Due to the thermodynamic stability of Tris salt Form C, further evaluation was conducted, including kinetic solubility in three bio-relevant media (FaSSGF/FaSSF/FeSSIF) and H2O at 37° C.

The conditions of series [4]: Sprague Dawley, rat, in vivo, po, 100 mg/kg.
Protocol: The objective of the pharmacokinetic (PK) studies was to determine the pharmacokinetics of the different forms of Compound 1 in intact Sprague Dawley rats after oral (PO) administration. […] Food and water were available to all animals ad libitum and Compound 1 or Tris salt Form C of Compound was dosed orally at 100 mg/kg (100 mL/kg). Approximately 110 μL of whole blood was collected via tail vein bleeding predose and at 0.083, 0.25, 0.5, 1, 2, 4, 8, 12 and 24 hours postdose into tubes containing the anticoagulant K2EDTA, processed to obtain plasma, and stored at approximately −70° C. until analysis. Concentrations of the active pharmaceutical ingredient in plasma samples were quantified using a nonvalidated liquid chromatography with tandem mass spectrometry (LC-MS/MS) method. Pharmacokinetic analysis of the individual plasma concentration data was performed using WinNonlin© (Version 6.4; Pharsight Corporation, Mountain View, CA, USA). Pharmacokinetic parameters were estimated using a noncompartmental extravascular models method. Area under the concentration-time curve (AUC) was calculated using the linear trapezoidal rule. […] Concentrations that were <80% of the LLOQ were designated as BLQ.

Turning to `Cc1ccccc1-c1ccc(-c2cc(C(=O)O)c3c(c2)nnn3C)cc1` [Tris salt Form C], the “form after slurry competition (XRPD), thermodynamic stability” value in series [1] was “thermodynamically more stable”. For the same compound, in series [2] (25° C.), the “solid form after the DVS test (XRPD)” value is given as “remained as Tris salt Form C”. In series [2] (DVS, humidity varied from 0% RH to 80% RH at 25° C.), this compound registered a moisture uptake of roughly 0.04 wt %. The solubility at 15 min in series [3] (FaSSIF, pH 6.5, fassif, Table 12, FaSSIF, 15 min) is 390 µg/mL; in series [3] (FeSSIF, pH 5, fessif, Table 12, FeSSIF, 15 min), 330 µg/mL; in series [3] (water, Table 12, H2O, 15 min), 810 µg/mL. Also, the solubility at 30 min in series [3] (FaSSIF, pH 6.5, fassif, Table 12, FaSSIF, 30 min) was 320 µg/mL; in series [3] (FeSSIF, pH 5, fessif, Table 12, FeSSIF, 30 min) it was 270 µg/mL; in series [3] (water, Table 12, H2O, 30 min), 820 µg/mL. The solubility at 1 h in series [3] (FaSSIF, pH 6.5, fassif, Table 12, FaSSIF, 1 h) amounted to 250 µg/mL; in series [3] (FeSSIF, pH 5, fessif, Table 12, FeSSIF, 1 h) it was 50 µg/mL; in series [3] (water, Table 12, H2O, 1 h), 720 µg/mL. Further, the solubility at 2 h was determined as 220 µg/mL in series [3] (FaSSIF, pH 6.5, fassif, Table 12, FaSSIF, 2 h); 40 µg/mL in series [3] (FeSSIF, pH 5, fessif, Table 12, FeSSIF, 2 h); 750 µg/mL in series [3] (water, Table 12, H2O, 2 h). The solubility at 24 h in series [3] (FaSSIF, pH 6.5, fassif, Table 12, FaSSIF, 24 h) is 170 µg/mL; in series [3] (FeSSIF, pH 5, fessif, Table 12, FeSSIF, 24 h), 40 µg/mL; in series [3] (water, Table 12, H2O, 24 h) it was 400 µg/mL. Further, the Solubility entry was “<LOD” in series [3] (Table 12, FaSSGF, 15 min); “<LOD” in series [3] (Table 12, FaSSGF, 30 min); “<LOD” in series [3] (Table 12, FaSSGF, 1 h); “<LOD” in series [3] (Table 12, FaSSGF, 2 h); “<LOD” in series [3] (Table 12, FaSSGF, 24 h). For the same compound, the pH is on record as 3.0 in series [3] (Table 12, FaSSGF, 15 min); 3.1 in series [3] (Table 12, FaSSGF, 30 min); 4.0 in series [3] (Table 12, FaSSGF, 1 h); 4.1 in series [3] (Table 12, FaSSGF, 2 h); 3.1 in series [3] (Table 12, FaSSGF, 24 h); 7.7 in series [3] (Table 12, FaSSIF, 15 min). The pH in series [3] (Table 12, FaSSIF, 30 min) is listed as 7.8; in series [3] (Table 12, FaSSIF, 1 h) it was 7.8; in series [3] (Table 12, FaSSIF, 2 h), 7.8; in series [3] (Table 12, FaSSIF, 24 h), 7.9; in series [3] (Table 12, FeSSIF, 15 min), 5.5*; in series [3] (Table 12, FeSSIF, 30 min), 5.6*. In addition, the pH was found to be 5.6 in series [3] (Table 12, FeSSIF, 1 h); 5.6 in series [3] (Table 12, FeSSIF, 2 h); 5.6 in series [3] (Table 12, FeSSIF, 24 h); 8.9 in series [3] (Table 12, H2O, 15 min); 9.0 in series [3] (Table 12, H2O, 30 min); 9.0 in series [3] (Table 12, H2O, 1 h). In addition, the pH is 9.0 in series [3] (Table 12, H2O, 2 h) and 9.2 in series [3] (Table 12, H2O, 24 h).
For `Cc1ccccc1-c1ccc(-c2cc(C(=O)O)c3c(c2)nnn3C)cc1` [Tris salt, 1-methyl-5-(2′-methyl-[1,1′-biphenyl]-yl)-1H-benzo[d][1,2,3]triazole-7-carboxylate Tris salt], in series [4], the “Cmax, fold higher than best free acid batch Lot B” value was roughly 1.5 fold and the “Tmax, fold lower than best free acid batch Lot B” value is recorded as roughly 2 fold.

By solubility is commonly meant the dissolved amount per volume that the medium holds.
